From the NIST ThermoML archive (doi:10.1021/je7006549)

Experiments:
[1] = mn = molality of the nth substance listed, in mol/kg; conditions: 101 kPa, Liquid
[2] = 101 kPa, Liquid

CC1=CC(=O)c2ccccc2C1=O [2-methyl-1,4-naphthalenedione] + c1ccccc1
[1]
Conditions | mass density [kg/m3] | viscosity [mPa·s]
303.15 K, m1 = 0.0334 | 869.4 | 0.5788
303.15 K, m1 = 0.0889 | 871.8 | 0.5842
303.15 K, m1 = 0.1332 | 873.7 | 0.588
303.15 K, m1 = 0.1778 | 875.6 | 0.5927
303.15 K, m1 = 0.2215 | 877.5 | 0.6006
303.15 K, m1 = 0.2681 | 879.5 | 0.6063
308.15 K, m1 = 0.0334 | 863.6 | 0.5408
308.15 K, m1 = 0.0889 | 866 | 0.5443
308.15 K, m1 = 0.1332 | 867.9 | 0.5484
308.15 K, m1 = 0.1778 | 869.8 | 0.5519
308.15 K, m1 = 0.2215 | 871.7 | 0.5598
308.15 K, m1 = 0.2681 | 873.7 | 0.5667
313.15 K, m1 = 0.0334 | 858.4 | 0.5057
313.15 K, m1 = 0.0889 | 860.8 | 0.5096
313.15 K, m1 = 0.1332 | 862.7 | 0.5142
313.15 K, m1 = 0.1778 | 864.6 | 0.5189
313.15 K, m1 = 0.2215 | 866.5 | 0.5242
313.15 K, m1 = 0.2681 | 868.5 | 0.5309
318.15 K, m1 = 0.0334 | 853 | 0.4782
318.15 K, m1 = 0.0889 | 855.4 | 0.4811
318.15 K, m1 = 0.1332 | 857.3 | 0.4847
318.15 K, m1 = 0.1778 | 859.2 | 0.4893
318.15 K, m1 = 0.2215 | 861.1 | 0.4945
318.15 K, m1 = 0.2681 | 863.1 | 0.5
323.15 K, m1 = 0.0334 | 847.7 | 0.4467
323.15 K, m1 = 0.0889 | 850.1 | 0.4489
323.15 K, m1 = 0.1332 | 852 | 0.4528
323.15 K, m1 = 0.1778 | 853.9 | 0.4566
323.15 K, m1 = 0.2215 | 855.8 | 0.461
323.15 K, m1 = 0.2681 | 857.8 | 0.4647
328.15 K, m1 = 0.0334 | 842.1 | 0.4206
328.15 K, m1 = 0.0889 | 844.5 | 0.4235
328.15 K, m1 = 0.1332 | 846.4 | 0.4266
328.15 K, m1 = 0.1778 | 848.3 | 0.4318
328.15 K, m1 = 0.2215 | 850.2 | 0.4347
328.15 K, m1 = 0.2681 | 852.2 | 0.4388
333.15 K, m1 = 0.0334 | 836.8 | 0.3946
333.15 K, m1 = 0.0889 | 839.2 | 0.3967
333.15 K, m1 = 0.1332 | 841.1 | 0.4003
333.15 K, m1 = 0.1778 | 843 | 0.4069
333.15 K, m1 = 0.2215 | 844.9 | 0.4084
333.15 K, m1 = 0.2681 | 846.9 | 0.4121

c1ccccc1 [benzene]
[2]
Conditions | mass density [kg/m3] | viscosity [mPa·s]
303.15 K | 868 | 0.564
308.15 K | 862.2 | 0.5232
313.15 K | 857 | 0.5001
318.15 K | 851.6 | 0.4714
323.15 K | 846.3 | 0.4397
328.15 K | 840.7 | 0.4145
333.15 K | 835.4 | 0.3932

c1ccccc1 [benzene] + CC1=CC(=O)c2ccccc2C1=O
[1], m2 = 0
Conditions | mass density [kg/m3] | viscosity [mPa·s]
303.15 K | 868 | 0.564
308.15 K | 862.2 | 0.5232
313.15 K | 857 | 0.5001
318.15 K | 851.6 | 0.4714
323.15 K | 846.3 | 0.4397
328.15 K | 840.7 | 0.4145
333.15 K | 835.4 | 0.3932

CCc1ccccc1 [ethylbenzene]
[2]
Conditions | mass density [kg/m3] | viscosity [mPa·s]
303.15 K | 858 | 0.5986
308.15 K | 853.5 | 0.5691
313.15 K | 849.5 | 0.5372
318.15 K | 844.7 | 0.506
323.15 K | 840.5 | 0.4805
328.15 K | 835.9 | 0.4566
333.15 K | 831.6 | 0.4371

CCc1ccccc1 [ethylbenzene] + CC1=CC(=O)c2ccccc2C1=O
[1], m2 = 0
Conditions | mass density [kg/m3] | viscosity [mPa·s]
303.15 K | 858 | 0.5986
308.15 K | 853.5 | 0.5691
313.15 K | 849.5 | 0.5372
318.15 K | 844.7 | 0.506
323.15 K | 840.5 | 0.4805
328.15 K | 835.9 | 0.4566
333.15 K | 831.6 | 0.4371

Cc1ccccc1 [toluene]
[2]
Conditions | mass density [kg/m3] | viscosity [mPa·s]
303.15 K | 857.5 | 0.5253
308.15 K | 852.9 | 0.4933
313.15 K | 847.9 | 0.4717
318.15 K | 843.5 | 0.4491
323.15 K | 838.7 | 0.4244
328.15 K | 834 | 0.4082
333.15 K | 829.1 | 0.3835

Cc1ccccc1 [toluene] + CC1=CC(=O)c2ccccc2C1=O
[1], m2 = 0
Conditions | mass density [kg/m3] | viscosity [mPa·s]
303.15 K | 857.5 | 0.5253
308.15 K | 852.9 | 0.4933
313.15 K | 847.9 | 0.4717
318.15 K | 843.5 | 0.4491
323.15 K | 838.7 | 0.4244
328.15 K | 834 | 0.4082
333.15 K | 829.1 | 0.3835
